target: T1, recombinant human secreted phospholipase A2 (Homo sapiens, UniProt P14555); test: chromogenic assay for inhibitors of recombinant human secreted phospholipase A2; format: biochemical; conditions: not given
T1 sequence (P14555 21-144): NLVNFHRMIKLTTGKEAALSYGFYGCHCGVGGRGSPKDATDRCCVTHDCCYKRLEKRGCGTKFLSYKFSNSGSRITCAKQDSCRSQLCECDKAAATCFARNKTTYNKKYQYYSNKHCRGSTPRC
Excerpt: The following chromogenic assay procedure was used to identify and evaluate inhibitors of recombinant human secreted phospholipase A2. The assay described herein has been adapted for high volume screening using 96 well microtiter plates. A general description of this assay method is found in the article, “Analysis of Human Synovial Fluid Phospholipase A2 on Short Chain Phosphatidylcholine-Mixed Micelles: Development of a Spectrophotometric Assay Suitable for a Microtiterplate Reader”, by Laure J. Reynolds, Lori L. Hughes, and Edward A Dennis, Analytical Biochemistry, 204, pp. 190-197, 1992 (the disclosure of which is incorporated herein by reference):
REACTION BUFFER —CaCl2. 2H2O (1.47 g/L) KCl (7.455 g/L) Bovine Serum Albumin (fatty acid free) (1 g/L) (Sigma A-7030, product of Sigma Chemical Co., St. Louis Mo., USA) TRIS HCl (3.94 g/L) pH 7.5 (adjust with NaOH)
ENZYME BUFFER-0.05 NaOAc.3H2O, pH 4.5 0.2 NaCl Adjust pH to 4.5 with acetic acid DTNB-5,5′-dithiobis-2-nitrobenzoic acid
RACEMIC DIHEPTANOYL THIO-PC racemic 1,2-bis(heptanoylthio)-1,2-dideoxy-sn-glycero-3-phosphorylcholine TRITON X-100™ prepare at 6.249 mg/ml in reaction buffer to equal […].
A measured volume of racemic dipheptanoyl thio PC supplied in chloroform at a concentration of 100 mg/ml is taken to dryness and redissolved in 10 millimolar
TRITON X-100™ nonionic detergent aqueous solution.
Reaction Buffer is added to the solution, then DTNB to give the Reaction Mixture.
The reaction mixture thus obtained contains 1 mM diheptanoly thio-PC substrate, 0.29 mm Triton X-100™ detergent, and 0.12 mm DTMB in a buffered aqueous solution at pH 7.5.
1. Add 0.2 ml reaction mixture to all wells;
2. Add 10 ul test compound (or solvent blank) to appropriate wells, mix 20 seconds;
3. Add 50 nanograms of sPLA2 (10 microliters) to appropriate wells;
4. Incubate plate at 40° C. for 30 minutes;
5. Read absorbance of wells at 405 nanometers with an automatic plate reader.
All compounds were tested in triplicate. Typically, compounds were tested at a final concentration of 5 ug/ml. […] Lack of color development at 405 nanometers evidenced inhibition. Compounds initially found to be active were reassayed to confirm their activity and, if sufficiently active, IC50 values were determined. […] In all cases, % inhibition measured at 405 nanometers generated by enzyme reactions containing inhibitors relative to the uninhibited control reactions was determined. Each sample was titrated in triplicate and result values were averaged for plotting and calculation of IC50 values. IC50 were determined by plotting log concentration versus inhibition values in the range from 10-90% inhibition.

SMILES	IC50
CCc1c(C(=O)C(N)=O)c2c(OCC(=O)OC)cccc2n1Cc1ccccc1 [Compound 1, [[3-(2-Amino-1,2-dioxoethyl)-2-ethyl-1-(phenylmethyl)-1H-indol-4-yl]oxy]acetic acid methyl ester]	49 nM

same assay, conditions: diheptanoyl thio-PC substrate, pH 7.5, 40° C. for 30 minutes, absorbance at 405 nanometers; read-out: Inhibition of human secreted PLA2 IC50 ± mean deviation (3-4 tests)

IC50	SMILES
71 nM	CCc1c(C(=O)C(N)=O)c2c(OCC(=O)NCC(=O)O)cccc2n1Cc1ccccc1 [Compound 3A, N-[2-[[3-(Aminooxoacetyl)-2-ethyl-1-(phenylmethyl)-1H-indol-4-yl]oxy]acetyl]glycine]
59 nM	CCc1c(C(=O)C(N)=O)c2c(OCC(=O)N[C@@H](C)C(=O)O)cccc2n1Cc1ccccc1 [Compound 3B, N-[2-[[3-(Aminooxoacetyl)-2-ethyl-1-(phenylmethyl)-1H-indol-4-yl]oxy]acetyl]-L-alanine]
28 nM	CCc1c(C(=O)C(N)=O)c2c(OCC(=O)N[C@@H](CC(C)C)C(=O)O)cccc2n1Cc1ccccc1 [Compound 3C, N-[2-[[3-(Aminooxoacetyl)-2-ethyl-1-(phenylmethyl)-1H-indol-4-yl]oxy]acetyl]-L-leucine]
132 nM	CCc1c(C(=O)C(N)=O)c2c(OCC(=O)N[C@@H](CC(=O)O)C(=O)O)cccc2n1Cc1ccccc1 [Compound 3D, N-[2-[[3-(Aminooxoacetyl)-2-ethyl-1-(phenylmethyl)-1H-indol-4-yl]oxy]acetyl]-L-aspartic Acid]
64 nM	CCc1c(C(=O)C(N)=O)c2c(OCC(=O)N[C@@H](Cc3ccccc3)C(=O)O)cccc2n1Cc1ccccc1 [Compound 3E, N-[2-[[3-(Aminooxoacetyl)-2-ethyl-1-(phenylmethyl)-1H-indol-4-yl]oxy]acetyl]-L-phenylalanine]
44.7 nM	CCc1c(C(=O)C(N)=O)c2c(OCC(=O)NC(C(=O)O)C(=O)O)cccc2n1Cc1ccccc1 [Compound 3F, [2-[[3-(Aminooxoacetyl)-2-ethyl-1-(phenylmethyl)-1H-indol-4-yl]oxy]acetamido]malonic Acid]
36.4 nM	CCc1c(C(=O)C(N)=O)c2c(OCC(=O)N[C@H](C(=O)O)C(C)C)cccc2n1Cc1ccccc1 [Compound 3G, N-[2-[[3-(Aminooxoacetyl)-2-ethyl-1-(phenylmethyl)-1H-indol-4-yl]oxy]acetyl]-L-valine]

More lines, now with the values behind:

SMILES	IC50
CCc1c(C(=O)C(N)=O)c2c(OCC(=O)NCC(=O)OC)cccc2n1Cc1ccccc1 [Compound 2A, N-[2-[[3-(Aminooxoacetyl)-2-ethyl-1-(phenylmethyl)-1H-indol-4-yl]oxy]acetyl]glycine Methyl Ester]	529 nM
CCc1c(C(=O)C(N)=O)c2c(OCC(=O)N[C@@H](C)C(=O)OC)cccc2n1Cc1ccccc1 [Compound 2B, N-[2-[[3-(Aminooxoacetyl)-2-ethyl-1-(phenylmethyl)-1H-indol-4-yl]oxy]acetyl]-L-alanine Methyl Ester]	533 nM
CCc1c(C(=O)C(N)=O)c2c(OCC(=O)N[C@@H](CC(C)C)C(=O)OC)cccc2n1Cc1ccccc1 [Compound 2C, N-[2-[[3-(Aminooxoacetyl)-2-ethyl-1-(phenylmethyl)-1H-indol-4-yl]oxy]acetyl]-L-leucine Methyl Ester]	82 nM
CCc1c(C(=O)C(N)=O)c2c(OCC(=O)N[C@@H](CC(=O)OC)C(=O)OC)cccc2n1Cc1ccccc1 [Compound 2D, N-[2-[[3-(Aminooxoacetyl)-2-ethyl-1-(phenylmethyl)-1H-indol-4-yl]oxy]acetyl]-L-aspartic Acid Dimethyl Ester]	874 nM
CCc1c(C(=O)C(N)=O)c2c(OCC(=O)N[C@@H](Cc3ccccc3)C(=O)OC)cccc2n1Cc1ccccc1 [Compound 2E, N-[2-[[3-(Aminooxoacetyl)-2-ethyl-1-(phenylmethyl)-1H-indol-4-yl]oxy]acetyl]-L-phenylalanine Methyl Ester]	666 nM
CCc1c(C(=O)C(N)=O)c2c(OCC(=O)NC(C(=O)OC)C(=O)OC)cccc2n1Cc1ccccc1 [Compound 2F, [2-[[3-(Aminooxoacetyl)-2-ethyl-1-(phenylmethyl)-1H-indol-4-yl]oxy]acetamido]malonic Acid Dimethyl Ester]	698 nM
CCc1c(C(=O)C(N)=O)c2c(OCC(=O)N[C@H](C(=O)OC)C(C)C)cccc2n1Cc1ccccc1 [Compound 2G, N-[2-[[3-(Aminooxoacetyl)-2-ethyl-1-(phenylmethyl)-1H-indol-4-yl]oxy]acetyl]-L-valine Methyl Ester]	283 nM
CCc1c(C(=O)C(N)=O)c2c(OCC(=O)N[C@H](C(=O)OC)[C@@H](C)CC)cccc2n1Cc1ccccc1 [Compound 2H, N-[2-[[3-(Aminooxoacetyl)-2-ethyl-1-(phenylmethyl)-1H-indol-4-yl]oxy]acetyl]-L-isoleucine Methyl Ester]	166 nM
CCc1c(C(=O)C(N)=O)c2c(OCC(=O)N[C@H](C(=O)O)[C@@H](C)CC)cccc2n1Cc1ccccc1 [Compound 3H, N-[2-[[3-(Aminooxoacetyl)-2-ethyl-1-(phenylmethyl)-1H-indol-4-yl]oxy]acetyl]-L-isoleucine]	25.1 nM

same assay, conditions: statement in words

SMILES	activity in inhibiting SPLA2
CCc1c(C(=O)C(N)=O)c2c(OCC(=O)OC)cccc2n1Cc1ccccc1 [Compound 1, [[3-(2-Amino-1,2-dioxoethyl)-2-ethyl-1-(phenylmethyl)-1H-indol-4-yl]oxy]acetic acid methyl ester]	highly active

From patent publication US6635670B2, “sPLA2 inhibitors” (Eli Lilly and Company, priority 1999, dated 2003)
